Values after ≈ are worked out from the molar mass of the structure shown.

Results on 4 compounds are retold here after ChEMBL document CHEMBL4184110 (Bioorg Med Chem Lett, 2018).

Data set [1] has as its target T1, Vitamin D3 receptor (Homo sapiens, UniProt P11473).
T1 sequence (P11473 whole entry): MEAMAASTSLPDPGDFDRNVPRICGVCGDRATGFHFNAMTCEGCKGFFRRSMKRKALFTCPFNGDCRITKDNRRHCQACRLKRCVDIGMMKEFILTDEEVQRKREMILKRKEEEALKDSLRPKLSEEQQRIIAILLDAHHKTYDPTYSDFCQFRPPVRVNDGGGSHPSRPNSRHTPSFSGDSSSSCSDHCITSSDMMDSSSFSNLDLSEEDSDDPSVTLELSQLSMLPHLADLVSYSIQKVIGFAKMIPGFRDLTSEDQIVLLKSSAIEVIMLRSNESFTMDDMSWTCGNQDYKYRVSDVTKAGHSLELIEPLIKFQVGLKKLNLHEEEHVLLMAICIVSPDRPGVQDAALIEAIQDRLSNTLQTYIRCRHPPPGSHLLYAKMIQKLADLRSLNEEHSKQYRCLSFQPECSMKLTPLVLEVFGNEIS
The data set is described as follows: Antagonist activity at CMV-fused VDR (unknown origin) expressed in HEK293T cells assessed as reduction in 24-hydroxylase promoter mediated transcriptional activity by luciferase reporter gene assay. Type of data set: cell-based. The settings on record: read-out: IC50.

In data set [2] the target is T2, Peroxisome proliferator-activated receptor gamma (Homo sapiens, UniProt P37231).
T2 sequence (P37231 whole entry): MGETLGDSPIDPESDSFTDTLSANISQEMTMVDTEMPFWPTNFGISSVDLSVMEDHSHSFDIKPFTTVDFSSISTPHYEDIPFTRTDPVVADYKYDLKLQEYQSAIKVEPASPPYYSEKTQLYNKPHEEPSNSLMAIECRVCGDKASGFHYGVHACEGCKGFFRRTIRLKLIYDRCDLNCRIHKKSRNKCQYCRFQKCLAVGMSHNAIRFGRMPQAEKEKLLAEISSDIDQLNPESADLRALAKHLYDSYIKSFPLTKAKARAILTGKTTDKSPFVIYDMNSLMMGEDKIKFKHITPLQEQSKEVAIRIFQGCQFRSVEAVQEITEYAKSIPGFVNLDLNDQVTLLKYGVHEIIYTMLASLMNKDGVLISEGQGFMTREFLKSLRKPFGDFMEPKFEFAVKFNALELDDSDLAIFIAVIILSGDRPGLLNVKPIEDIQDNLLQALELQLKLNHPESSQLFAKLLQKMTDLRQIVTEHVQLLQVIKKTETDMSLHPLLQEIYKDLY
Briefly: Antagonist activity at CMV-fused PPARgamma-LBD-GAL4-DBD (unknown origin) expressed in HEK293T cells assessed as inhibition of rosiglitazone-induced receptor transactivation after 16 hrs by bright-Glo luciferase reporter gene assay. The class given is cell-based.

A short description of data set [3]: Aqueous solubility of the compound in DMSO at 500 uM by filter based assay. The class given is physicochemical.
The target in data set [4] is Estrogen receptor beta (Homo sapiens, UniProt Q92731). Briefly: Antagonist activity at CMV-fused ERbeta-LBD-GAL4-DBD (unknown origin) expressed in HEK293T cells assessed as inhibition of estradiol-induced receptor transactivation after 16 hrs by bright-Glo luciferase reporter gene assay. Type of data set: cell-based.
Estrogen receptor beta, sequence (Q92731 whole entry, the tested form may be a part): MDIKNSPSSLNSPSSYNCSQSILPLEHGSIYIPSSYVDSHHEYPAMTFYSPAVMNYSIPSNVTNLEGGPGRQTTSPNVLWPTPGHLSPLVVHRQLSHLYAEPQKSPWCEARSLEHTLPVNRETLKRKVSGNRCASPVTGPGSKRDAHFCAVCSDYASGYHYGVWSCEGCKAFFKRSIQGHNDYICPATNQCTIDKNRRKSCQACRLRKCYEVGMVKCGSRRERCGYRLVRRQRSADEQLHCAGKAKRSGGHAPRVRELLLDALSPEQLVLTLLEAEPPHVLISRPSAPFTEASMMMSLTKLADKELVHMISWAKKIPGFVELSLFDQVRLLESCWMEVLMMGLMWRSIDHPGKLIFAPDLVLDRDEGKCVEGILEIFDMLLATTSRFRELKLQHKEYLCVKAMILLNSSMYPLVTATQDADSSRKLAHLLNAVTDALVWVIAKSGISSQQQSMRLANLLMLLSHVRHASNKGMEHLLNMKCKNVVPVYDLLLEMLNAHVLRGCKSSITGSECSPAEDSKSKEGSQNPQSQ
The target of data set [5] is T3, Peroxisome proliferator-activated receptor delta (Homo sapiens, UniProt Q03181).
T3 sequence (Q03181 whole entry): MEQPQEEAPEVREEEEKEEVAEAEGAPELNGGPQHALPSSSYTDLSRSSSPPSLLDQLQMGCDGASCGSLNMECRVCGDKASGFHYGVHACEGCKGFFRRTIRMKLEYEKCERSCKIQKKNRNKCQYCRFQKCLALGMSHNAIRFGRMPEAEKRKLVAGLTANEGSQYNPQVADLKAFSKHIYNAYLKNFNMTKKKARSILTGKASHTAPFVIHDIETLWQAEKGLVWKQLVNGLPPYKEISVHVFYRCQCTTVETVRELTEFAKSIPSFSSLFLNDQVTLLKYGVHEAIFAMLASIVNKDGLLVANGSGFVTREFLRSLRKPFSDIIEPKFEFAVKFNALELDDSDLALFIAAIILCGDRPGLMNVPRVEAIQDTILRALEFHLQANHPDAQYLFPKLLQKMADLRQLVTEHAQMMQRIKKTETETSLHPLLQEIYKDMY
The data set is described as follows: Antagonist activity at CMV-fused PPARdelta-LBD-GAL4-DBD (unknown origin) expressed in HEK293T cells assessed as inhibition of GW0742-induced receptor transactivation after 16 hrs by bright-Glo luciferase reporter gene assay. The class given is cell-based.

Data set [6] addresses T1, Vitamin D3 receptor. The data set is described as follows: Agonist activity at VDR-LBD (unknown origin) assessed as recruitment of alexa fluor 647-labeled SRC2-3 after 30 mins by fluorescence polarization assay.
Data set [7] concerns the target T4, Peroxisome proliferator-activated receptor alpha (Homo sapiens, UniProt Q07869).
T4 sequence (Q07869 whole entry): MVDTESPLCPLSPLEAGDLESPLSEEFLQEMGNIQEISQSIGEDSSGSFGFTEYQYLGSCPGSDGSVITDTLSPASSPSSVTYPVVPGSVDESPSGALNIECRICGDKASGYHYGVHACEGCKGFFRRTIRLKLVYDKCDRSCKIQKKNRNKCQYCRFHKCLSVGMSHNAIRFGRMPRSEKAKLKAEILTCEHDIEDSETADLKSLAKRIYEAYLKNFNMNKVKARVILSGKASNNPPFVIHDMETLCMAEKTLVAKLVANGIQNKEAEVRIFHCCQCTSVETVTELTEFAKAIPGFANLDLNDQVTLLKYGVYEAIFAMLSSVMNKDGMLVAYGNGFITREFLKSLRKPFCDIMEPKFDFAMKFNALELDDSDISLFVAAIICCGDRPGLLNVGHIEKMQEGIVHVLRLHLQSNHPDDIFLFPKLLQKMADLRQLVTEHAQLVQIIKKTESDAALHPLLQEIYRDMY
Briefly: Antagonist activity at CMV-fused PPARalpha-LBD-GAL4-DBD (unknown origin) expressed in HEK293T cells assessed as inhibition of GW7647-induced receptor transactivation after 16 hrs by bright-Glo luciferase reporter gene assay. Type of data set: cell-based.

The target in data set [8] is T5, Thyroid hormone receptor alpha (Homo sapiens, UniProt P10827).
T5 sequence (P10827 whole entry): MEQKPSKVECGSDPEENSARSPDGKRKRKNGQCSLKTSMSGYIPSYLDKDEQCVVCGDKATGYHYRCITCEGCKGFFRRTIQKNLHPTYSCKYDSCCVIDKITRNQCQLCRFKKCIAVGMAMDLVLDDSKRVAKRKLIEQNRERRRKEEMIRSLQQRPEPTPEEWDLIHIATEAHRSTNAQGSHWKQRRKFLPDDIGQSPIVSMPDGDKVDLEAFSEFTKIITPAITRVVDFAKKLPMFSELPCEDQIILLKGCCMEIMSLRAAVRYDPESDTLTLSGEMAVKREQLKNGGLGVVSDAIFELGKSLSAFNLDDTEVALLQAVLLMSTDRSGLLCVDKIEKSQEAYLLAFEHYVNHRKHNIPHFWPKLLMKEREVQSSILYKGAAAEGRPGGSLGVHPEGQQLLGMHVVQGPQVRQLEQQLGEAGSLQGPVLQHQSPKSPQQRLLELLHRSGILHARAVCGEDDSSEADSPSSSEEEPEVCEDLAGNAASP
Briefly: Antagonist activity at CMV-fused TRalpha-LBD-GAL4-DBD (unknown origin) expressed in HEK293T cells assessed as inhibition of T3-induced receptor transactivation after 16 hrs by bright-Glo luciferase reporter gene assay. Type of data set: cell-based.

Consider `COC(=O)Cc1ccc(OCc2oc(-c3cccc(OC)c3)nc2C)cc1`, for which the IC50 in data set [1] was 0.66 µM; in data set [2], 6.7 µM; in data set [4] it was 7.4 µM; in data set [5], 11.3 µM; in data set [7], 1.9 µM; in data set [8] it was 4.2 µM. This compound displayed a solubility (kinetic) at 500 µM in data set [3] of 45.3 µM (≈ 16.6 µg/mL). Further, the EC50 entry in data set [6] is “Not Active”.

For the compound `COC(=O)c1cccc(OCc2oc(-c3ccccc3OC)nc2C)c1`, the IC50 was found to be 2.5 µM in data set [1]; 7.6 µM in data set [2]; 23.6 µM in data set [4]; 10.9 µM in data set [5]; 6.6 µM in data set [7]; 10.1 µM in data set [8]. The same compound gave a solubility (kinetic) at 500 µM in data set [3] of 44.1 µM (≈ 15.6 µg/mL). Further, the EC50 entry in data set [6] is reported as “Not Active”.

For the compound `COC(=O)c1ccc(OCc2oc(-c3cccc(OC)c3)nc2C)cc1`, the IC50 stood at 5.67 µM in data set [1]; 7.6 µM in data set [2]; 5.9 µM in data set [4]; 10.9 µM in data set [5]; 3.5 µM in data set [7]; 5.4 µM in data set [8]. This compound also gave a solubility (kinetic) at 500 µM in data set [3] of 18.5 µM (≈ 6.54 µg/mL). Besides, the EC50 entry in data set [6] is given as “Not Active”.

Turning to `COC(=O)Cc1ccc(OCc2oc(-c3ccccc3OC)nc2C)cc1`, the 50% inhibitory concentration (IC50) was 3.82 µM in data set [1]; 6.3 µM in data set [2]; 10 µM in data set [4]; 6.6 µM in data set [5]; 8 µM in data set [7]; 8.4 µM in data set [8]. This compound displayed a kinetic solubility at 500 µM in data set [3] of 61.6 µM (≈ 22.6 µg/mL). Moreover, in data set [6], the EC50 result was “Not Active”.
